Reference: the supplement of paper PMC10307832

Legend:
Experiment in all cases: relative viability (nuclei count vs DMSO), 5 days (fraction); higher = more cells survive
Carfilzomib + Navitoclax = compound: CC(C)C[C@H](NC(=O)[C@H](CCc1ccccc1)NC(=O)CN1CCOCC1)C(=O)N[C@@H](Cc1ccccc1)C(=O)N[C@@H](CC(C)C)C(=O)[C@@]1(C)CO1 [Carfilzomib] + CC1(C)CCC(c2ccc(Cl)cc2)=C(CN2CCN(c3ccc(C(=O)NS(=O)(=O)c4ccc(N[C@H](CCN5CCOCC5)CSc5ccccc5)c(S(=O)(=O)C(F)(F)F)c4)cc3)CC2)C1 [Navitoclax] (partner 0.5 µM)
Outline: (§1)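 For relative viability, nuclei counts in treated wells were divided by those in vehicle wells. Lung cancer cell lines had been pin-tool dosed in 1536-well plates the day after seeding and cultured for 5 days, then fixed and stained in one step (final 0.05% Triton X-100, 1% formaldehyde, 1 ug/ml Hoechst) and imaged at 4×. Doses were one drug alone or a fixed anchor-drug dose plus five library-drug doses (not always all listed) in √10 steps, and values are duplicate-plate medians.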

Crizotinib + Bortezomib = compound: C[C@@H](Oc1cc(-c2cnn(C3CCNCC3)c2)cnc1N)c1c(Cl)ccc(F)c1Cl [Crizotinib] + CC(C)C[C@H](NC(=O)[C@H](Cc1ccccc1)NC(=O)c1cnccn1)B(O)O [Bortezomib] (partner 0.002 µM)
Outline: as §1

Olaparib + Lapatinib = compound: O=C(c1cc(Cc2n[nH]c(=O)c3ccccc23)ccc1F)N1CCN(C(=O)C2CC2)CC1 [Olaparib] + CS(=O)(=O)CCNCc1ccc(-c2ccc3ncnc(Nc4ccc(OCc5cccc(F)c5)c(Cl)c4)c3c2)o1 [Lapatinib] (partner 2 µM)
Outline: as §1

Crizotinib + AZD7762 = compound: C[C@@H](Oc1cc(-c2cnn(C3CCNCC3)c2)cnc1N)c1c(Cl)ccc(F)c1Cl [Crizotinib] + NC(=O)Nc1cc(-c2cccc(F)c2)sc1C(=O)N[C@H]1CCCNC1 [AZD7762] (partner 0.2 µM)
Outline: as §1

Cell Line	relative viability (Carfilzomib + Navitoclax; first compound 0.001 µM)	relative viability (Carfilzomib + Navitoclax; first compound 0.003162 µM)	relative viability (Carfilzomib + Navitoclax; first compound 0.01 µM)	relative viability (Carfilzomib + Navitoclax; first compound 0.03162 µM)	relative viability (Carfilzomib + Navitoclax; first compound 0.1 µM)	relative viability (Crizotinib + Bortezomib; first compound 0.01 µM)	relative viability (Crizotinib + Bortezomib; first compound 0.03162 µM)	relative viability (Crizotinib + Bortezomib; first compound 0.1 µM)	relative viability (Crizotinib + Bortezomib; first compound 0.3162 µM)	relative viability (Crizotinib + Bortezomib; first compound 1 µM)	relative viability (Olaparib + Lapatinib; first compound 0.08 µM)	relative viability (Olaparib + Lapatinib; first compound 0.253 µM)	relative viability (Olaparib + Lapatinib; first compound 2.53 µM)	relative viability (Olaparib + Lapatinib; first compound 8 µM)	relative viability (Crizotinib + AZD7762; first compound 0.01 µM)	relative viability (Crizotinib + AZD7762; first compound 0.03162 µM)	relative viability (Crizotinib + AZD7762; first compound 0.1 µM)	relative viability (Crizotinib + AZD7762; first compound 0.3162 µM)	relative viability (Crizotinib + AZD7762; first compound 1 µM)
NCI-H1651	1.11	1.06	0.728	0.123	0.0777	0.93	0.979	0.939	0.815	0.924	0.712	0.752	0.628	0.27	0.438	0.472	0.409	0.483	0.463
NCI-H1666	1.07	0.963	1.05	0.929	0.263	0.791	0.981	0.829	0.796	0.912	0.845	0.633	0.577	0.532	0.78	0.899	0.828	0.825	
NCI-H1703	1.13	1.17	0.164	0.151	0.102	0.365	0.301	0.226	0.319	0.322	1.63	1.03	1.29	1.04	0.157	0.172	0.126	0.116	0.125
NCI-H1734	0.831	1.05	0.803	0.584	0.0981	1.01	0.926	0.87		1.07	1.1	0.974	0.933	0.749	0.51	0.509	0.553		0.616
NCI-H1755	0.972	0.989	0.994	0.841	0.198		0.964	0.923	0.87	0.991	1.15	0.916	1.08	0.967	0.407	0.423	0.539	0.411	0.455
NCI-H1792	0.575	0.628	0.563	0.612	0.555	0.955	0.983	1.01	0.931	0.917	0.895	0.738	0.82	0.779	0.634	0.881	0.626		0.63
NCI-H1915	0.717	0.785	0.762	0.438	0.0486	0.98	0.921	1.06		0.963	1.05	0.813	0.778	0.76	0.66	0.682	0.739	0.694	0.704
NCI-H1975	1.05	1.23	0.416	0.213	0.144	0.317	0.362	0.315	0.373	0.404	0.999	0.844	0.808	0.786	0.641	0.784	0.771	0.684	0.636
NCI-H1993	0.856	0.773	1.08	0.861	0.527	0.937	1.05	0.833	0.899	0.76	0.932	0.779	0.855	0.77	0.702	0.75		0.379	0.527
NCI-H2085	1.08	1.23	1.02	0.436	0.242	0.995	1.22	1.07	1.02	1.02	0.968	0.711	0.737	0.618	0.961	1.01	0.986	0.737	1.02
NCI-H2087	1.07	0.97	0.721	0.115	0.0804	0.773	1.12	0.952	0.685	0.808	1.08	0.997	0.892	0.632	1.39	1.49	1.24	1.24	1.48
NCI-H2126	0.826	0.884	0.871	0.865	0.592	1.04	1.13	1.2		1.16	0.845	0.766	0.759	0.784	0.928	1.09	1.02	0.903	1.04
NCI-H2347	0.698	0.931	0.733	0.512	0.235	1.02	0.919	1.15	0.95	1.14	0.972	0.949	0.957	0.767	0.773	0.663	0.772	0.582	0.884
NCI-H2405		1.26	1.04	0.108	0.092	1	0.997	1.04	1.09		1.41	1.06	0.924	0.972	0.632	0.695	0.684	0.763	0.755
NCI-H3122	1.03	1.07	1.05	0.992	0.672	0.96	0.942	1.09	0.889	0.989	1.02	0.934	0.936	0.946	1.01	1.05	0.93	0.962	0.921
PC-3 [JPC-3]	0.74	0.84	0.761	0.705	0.138	0.772	0.948	0.833	0.878	0.837	0.558	0.417	0.429	0.463	0.687		0.907		0.772
PC-14	1	1.05	1.05	0.133	0.0977	0.892	0.742	0.905	0.805	0.961	0.368	0.319	0.298	0.307	0.342	0.392	0.401	0.355	0.382
RERF-LC-KJ	0.972	1.13	0.608	0.218	0.252	1.02	0.951	1.1	1	1.09	0.872	0.831	0.971	0.872	1.02	0.956	0.956	0.946	0.994
